Measurements taken from PubChem BioAssay AID1963871 (Molecular Pharmacology Branch, DTP, NCI, 2024).

Tested on: KRAS-mutant PDC multicell tumor spheroid viability
Experiment: Anticancer human tumor 521955-158-R2-J5-PDC patient-derived pancreatic carcinoma cell line growth inhibition [KRAS2]
Conditions: for IC50: curve of first compound; for viability, T/C: stronger effect = lower value
Method in brief: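 Combination screen of spheroid viability in tumor-cell co-cultures with endothelial (HUVEC) and mesenchymal stem cell stroma. Each agent was tested in half-log dilutions, topping at clinical Cmax or at 10 microM without a known Cmax.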

[1] = second compound 0.1 µM, first compound 0.0316 µM
[2] = second compound 0.1 µM, first compound 0.1 µM
[3] = second compound 0.1 µM, first compound 0.316 µM
[4] = second compound 0.1 µM, first compound 1 µM
[5] = second compound 0.1 µM, first compound 3.16 µM
[6] = second compound 0.1 µM, first compound 10 µM
[7] = second compound 0.316 µM, first compound 0.0316 µM
[8] = second compound 0.316 µM, first compound 0.1 µM
[9] = second compound 0.316 µM, first compound 0.316 µM
[10] = second compound 0.316 µM, first compound 1 µM
[11] = second compound 0.316 µM, first compound 3.16 µM
[12] = second compound 0.316 µM, first compound 10 µM
[13] = second compound 1 µM, first compound 0.0316 µM
[14] = second compound 1 µM, first compound 0.1 µM
[15] = second compound 1 µM, first compound 0.316 µM
[16] = second compound 1 µM, first compound 1 µM
[17] = second compound 1 µM, first compound 3.16 µM
[18] = second compound 1 µM, first compound 10 µM
[19] = second compound 3.16 µM, first compound 0.0316 µM
[20] = second compound 3.16 µM, first compound 0.1 µM
[21] = second compound 3.16 µM, first compound 0.316 µM
[22] = second compound 3.16 µM, first compound 1 µM
[23] = second compound 3.16 µM, first compound 3.16 µM
[24] = second compound 3.16 µM, first compound 10 µM
[25] = second compound 10 µM, first compound 0.0316 µM
[26] = second compound 10 µM, first compound 0.1 µM
[27] = second compound 10 µM, first compound 0.316 µM
[28] = second compound 10 µM, first compound 1 µM
[29] = second compound 10 µM, first compound 3.16 µM
[30] = second compound 10 µM, first compound 10 µM
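Also: viability read after seven days of drug exposure.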

Row | Compound | IC50 (second compound 0.1 µM) [nM] | IC50 (second compound 0.316 µM) [nM] | IC50 (second compound 1 µM) [nM] | IC50 (second compound 3.16 µM) [nM] | viability, T/C [1] [%] | viability, T/C [2] [%] | viability, T/C [3] [%] | viability, T/C [4] [%] | viability, T/C [7] [%] | viability, T/C [8] [%] | viability, T/C [9] [%] | viability, T/C [10] [%] | viability, T/C [13] [%] | viability, T/C [14] [%] | viability, T/C [15] [%] | viability, T/C [16] [%] | viability, T/C [19] [%] | viability, T/C [20] [%] | viability, T/C [21] [%] | viability, T/C [22] [%] | also measured
1 | CC1OCC2(CCN(c3cnc(Sc4ccnc(N)c4Cl)c(N)n3)CC2)C1N (stereo not given) + COc1cc2nc(C)nc(NC(C)c3cc(N)cc(C(F)(F)F)c3)c2cc1OC1CCOC1 | > 10000 | > 10000 | > 10000 | > 10000 | 87.6 | 83.6 | 77.6 | 75.9 | 82.3 | 97.1 | 85.9 | 71.9 | 105 | 92.1 | 82.4 | 74.4 | 111 | 102 | 88 | 83.8 | IC50 (second compound 10 µM): 4270 nM; viability, T/C [5]: 72.5%; viability, T/C [6]: 56.6%; viability, T/C [11]: 64.2%; viability, T/C [12]: 55.4%; viability, T/C [17]: 72.1%; viability, T/C [18]: 62.5%; viability, T/C [23]: 80.3%; viability, T/C [24]: 84.6%; viability, T/C [25]: 90.4%; viability, T/C [26]: 84.7%; viability, T/C [27]: 76.9%; viability, T/C [28]: 65.9%; viability, T/C [29]: 58.5%; viability, T/C [30]: 35%
2 | CCN1CCN(Cc2ccc(Nc3ncc(F)c(-c4cc(F)c5nc(C)n(C(C)C)c5c4)n3)nc2)CC1 + CC1OCC2(CCN(c3cnc(Sc4ccnc(N)c4Cl)c(N)n3)CC2)C1N | > 1000 | > 1000 | > 1000 | > 1000 | 59 | 61.5 | 73.7 | 66 | 55.2 | 57.2 | 75.5 | 61.4 | 58.2 | 60 | 62.2 | 68.8 | 60.9 | 60.8 | 63.8 | 60.1 | IC50 (second compound 10 µM): > 1000 nM; viability, T/C (second compound 0.1 µM, first compound 0.00316 µM): 72.4%; viability, T/C (second compound 0.1 µM, first compound 0.01 µM): 87%; viability, T/C (second compound 0.316 µM, first compound 0.00316 µM): 66.5%; viability, T/C (second compound 0.316 µM, first compound 0.01 µM): 70.6%; viability, T/C (second compound 1 µM, first compound 0.00316 µM): 70.6%; viability, T/C (second compound 1 µM, first compound 0.01 µM): 59.5%; viability, T/C (second compound 3.16 µM, first compound 0.00316 µM): 66.8%; viability, T/C (second compound 3.16 µM, first compound 0.01 µM): 67.9%; viability, T/C (second compound 10 µM, first compound 0.00316 µM): 62.6%; viability, T/C (second compound 10 µM, first compound 0.01 µM): 71.8%; viability, T/C [25]: 63.5%; viability, T/C [26]: 61.7%; viability, T/C [27]: 57.4%; viability, T/C [28]: 50.2%
3 | CC(C)NCC(C(=O)N1CCN(c2ncnc3c2C(C)CC3O)CC1)c1ccc(Cl)cc1 (stereo not given) + COc1cc2nc(C)nc(NC(C)c3cc(N)cc(C(F)(F)F)c3)c2cc1OC1CCOC1 | > 10000 | > 10000 | > 10000 | > 10000 | 89.3 | 92.2 | 70.4 | 75.2 | 95.9 | 86 | 71.7 | 67.5 | 81.3 | 86.6 | 60.2 | 64.1 | 87.3 | 93.1 | 72.2 | 56.8 | IC50 (second compound 10 µM): 197 nM; viability, T/C [5]: 70.9%; viability, T/C [6]: 56.4%; viability, T/C [11]: 71%; viability, T/C [12]: 60.7%; viability, T/C [17]: 63.7%; viability, T/C [18]: 60.8%; viability, T/C [23]: 59.4%; viability, T/C [24]: 43.5%; viability, T/C [25]: 48.7%; viability, T/C [26]: 65.2%; viability, T/C [27]: 43%; viability, T/C [28]: 29.7%; viability, T/C [29]: 14.3%; viability, T/C [30]: 4.84%
4 | Cn1nccc1Nc1nccc(-c2cc3c(s2)C(C)(C)N(CCN2CCOCC2)C3=O)n1 + CNCc1ccccc1-c1csc(C(C)Nc2nc(C)nc3cc(OC)c(OC)cc23)c1 | 1050 | 784 | 913 | < 31.6 | 99.7 | 84.2 | 60.7 | 54.2 | 98.3 | 81.4 | 60.9 | 49.6 | 103 | 100 | 71.9 | 47.7 | 0.21 | 0.22 | 0.19 | 0.51 | IC50 (second compound 10 µM): < 31.6 nM; viability, T/C [5]: 36.5%; viability, T/C [6]: 18%; viability, T/C [11]: 29.4%; viability, T/C [12]: 18.3%; viability, T/C [17]: 22.3%; viability, T/C [18]: 0.54%; viability, T/C [23]: 0.08%; viability, T/C [24]: 0.36%; viability, T/C [25]: 0.11%; viability, T/C [26]: 0.15%; viability, T/C [27]: 0.14%; viability, T/C [28]: 0.14%; viability, T/C [29]: 0.19%; viability, T/C [30]: 0.2%
5 | COc1cc2nccc(Oc3ccc(NC(=O)C4(C(=O)Nc5ccc(F)cc5)CC4)cc3)c2cc1OC + C=CC(=O)N1CCN(c2nc(OCC3CCCN3C)nc3c2CCN(c2cccc4cccc(C)c24)C3)CC1CC#N | 7660 | 6600 | 2680 | < 31.6 | 105 | 108 | 118 | 116 | 89.9 | 113 | 108 | 97.9 | 86.2 | 95 | 89.7 | 81.9 | 19.4 | 26.7 | 17.7 | 4.13 | IC50 (second compound 0.0316 µM): 8200 nM; viability, T/C (second compound 0.0316 µM, first compound 0.0316 µM): 111%; viability, T/C (second compound 0.0316 µM, first compound 0.1 µM): 112%; viability, T/C (second compound 0.0316 µM, first compound 0.316 µM): 126%; viability, T/C (second compound 0.0316 µM, first compound 1 µM): 124%; viability, T/C (second compound 0.0316 µM, first compound 3.16 µM): 94.6%; viability, T/C (second compound 0.0316 µM, first compound 10 µM): 40.7%; viability, T/C [5]: 94.1%; viability, T/C [6]: 36.7%; viability, T/C [11]: 82.7%; viability, T/C [12]: 31.7%; viability, T/C [17]: 44.7%; viability, T/C [18]: 14.9%; viability, T/C [23]: 0.96%; viability, T/C [24]: 0.26%
6 | CC1OCC2(CCN(c3cnc(Sc4ccnc(N)c4Cl)c(N)n3)CC2)C1N (stereo not given) + CNCc1ccccc1-c1csc(C(C)Nc2nc(C)nc3cc(OC)c(OC)cc23)c1 | > 10000 | > 10000 | > 10000 | < 31.6 | 86.5 | 83.1 | 85.6 | 74.4 | 90.2 | 85.2 | 68.5 | 77.3 | 90.6 | 83.5 | 76.8 | 70 | 0.27 | 0.18 | 0.19 | 0.2 | IC50 (second compound 10 µM): < 31.6 nM; viability, T/C [5]: 67%; viability, T/C [6]: 70.7%; viability, T/C [11]: 75.4%; viability, T/C [12]: 73.1%; viability, T/C [17]: 68.4%; viability, T/C [18]: 75%; viability, T/C [23]: 0.36%; viability, T/C [24]: 0.31%; viability, T/C [25]: 0.15%; viability, T/C [26]: 0.14%; viability, T/C [27]: 0.15%; viability, T/C [28]: 0.13%; viability, T/C [29]: 0.14%; viability, T/C [30]: 0.21%
